In patent US20240284910A1, “HERBICIDAL COMPOSITIONS” (SYNGENTA CROP PROTECTION AG, priority 2021, published 2024):

What was measured:
Assay type in all cases: in vivo
Conditions in all cases: sprayed, evaluated after 13 days
[1] = test system: Abutilon threophrasti (ABUTH); assay: Post-emergence glasshouse phytotoxicity test, ABUTH
Protocol: Seeds of Chenopodium album (CHEAL), Ipomoea hederacea (IPOHE), Amaranthus retroflexus (AMARE) and Abutilon threophrasti (ABUTH) and Stellaria media (STEME) were sown in standard sterilised soil in pots. After cultivation for 8 days under controlled conditions in a glasshouse (at 24/19° C., day/night; 16 hours light; no humidity control), the plants were sprayed at 500 I/Ha with an aqueous spray solution derived from the formulation of the technical active ingredients in a small amount of acetone and a solvent and emulsifier mixture referred to as IF50 (11.12% Emulsogen EL360 TM+44.44% N-methylpyrrolidone+44.44% Dowanol DPM glycol ether), to create a 50 g/l solution which was then diluted using 0.2% Genapol XO80 (CAS Number: 9043-30-5) as diluent to give the desired final dose of test compound. […] After 13 days, the test was evaluated visually for percentage phytotoxicity to the plants (where 100=total damage to plant; 0=no damage to plant) when compared to control untreated plants. […]
(§1) 22., E=X+Y−(X*Y/100), where • X=average percent phytotoxicity of herbicide A when applied at a certain rate • Y=average percent phytotoxicity using herbicide B when applied at a certain rate • E=the expected effect of the mixture of herbicides A and B as calculated from the Colby formula.

[2] = test system: Chenopodium album (CHEAL); assay: Post-emergence glasshouse phytotoxicity test, CHEAL
Protocol: (§2) Seeds of Chenopodium album (CHEAL), Ipomoea hederacea (IPOHE), Amaranthus retroflexus (AMARE) and Abutilon threophrasti (ABUTH) and Stellaria media (STEME) were sown in standard sterilised soil in pots. After cultivation for 8 days under controlled conditions in a glasshouse (at 24/19° C., day/night; 16 hours light; no humidity control), the plants were sprayed at 500 I/Ha with an aqueous spray solution derived from the formulation of the technical active ingredients in a small amount of acetone and a solvent and emulsifier mixture referred to as IF50 (11.12% Emulsogen EL360 TM+44.44% N-methylpyrrolidone+44.44% Dowanol DPM glycol ether), to create a 50 g/l solution which was then diluted using 0.2% Genapol XO80 (CAS Number: 9043-30-5) as diluent to give the desired final dose of test compound. Where active ingredients were applied as mixtures, aqueous spray solutions were prepared as above, containing both active ingredients. The test plants were then grown under controlled conditions in a glasshouse (at 24/18° C., day/night; 15 hours light; 50% humidity) and watered twice daily. After 13 days, the test was evaluated visually for percentage phytotoxicity to the plants (where 100=total damage to plant; 0=no damage to plant) when compared to control untreated plants. Two to four replicates were applied for each treatment in a randomised block test design.
as §1

[3] = test system: Ipomoea hederacea (IPOHE); assay: Post-emergence glasshouse phytotoxicity test, IPOHE
Protocol: as §2, §1

[4] = test system: Amaranthus retroflexus (AMARE); assay: Post-emergence glasshouse phytotoxicity test, AMARE
Protocol: as §2, §1

Stellaria media (STEME) = assay: Post-emergence glasshouse phytotoxicity test, STEME
Protocol: as §2, §1

Structure (SMILES) | Observed (O) percentage phytotoxicity ([1]; rate 12.5 g/ha) | Observed (O) percentage phytotoxicity ([2]; rate 6.25 g/ha) | Observed (O) percentage phytotoxicity ([2]; rate 12.5 g/ha) | Observed (O) percentage phytotoxicity ([3]; rate 6.25 g/ha) | Observed (O) percentage phytotoxicity ([3]; rate 12.5 g/ha) | Observed (O) percentage phytotoxicity ([4]; rate 6.25 g/ha) | Observed (O) percentage phytotoxicity ([4]; rate 25 g/ha) | Observed (O) percentage phytotoxicity (Stellaria media (STEME); rate 6.25 g/ha) | Observed (O) percentage phytotoxicity (Stellaria media (STEME); rate 12.5 g/ha, 100=total damage, 0=no damage) | Observed (O) percentage phytotoxicity ([1]; rate 0.31 g/ha) | Observed (O) percentage phytotoxicity ([2]; rate 0.31 g/ha) | Observed (O) percentage phytotoxicity ([3]; rate 0.16 g/ha) | Observed (O) percentage phytotoxicity ([4]; rate 0.31 g/ha) | Observed (O) percentage phytotoxicity (Stellaria media (STEME); rate 0.16 g/ha) | Observed (O) percentage phytotoxicity (Stellaria media (STEME); rate 0.31 g/ha)
CN1C[C@H](c2cccc(C(F)(F)F)c2)[C@@H](C(=O)Nc2ccccc2F)C1=O [I-A] | 10% | 0% | 28% | 25% | 38% | 0% | 8% | 33% | 58% | – | – | – | – | – | –
Cc1nnc(NC(=O)c2ccc(C(F)(F)F)n3c(CS(=O)(=O)C(C)C)nnc23)o1 [II] | – | – | – | – | – | – | – | – | – | 34% | 24% | 4% | 5% | 13% | 6%
